In brackets after ≈: the same amount, converted by molar mass.
What was measured:
Assay type in all cases: functional
Salmonella typhi [1] = test: Antibacterial activity against Salmonella enterica subsp. enterica serovar Typhi MTCC 733 assessed as growth inhibition at 3.12 to 50 ug/mL after 24 hr by agar disk diffusion method
Klebsiella pneumoniae [2] = test: Antibacterial activity against Klebsiella pneumoniae MTCC 109 assessed as growth inhibition at 3.12 to 50 ug/mL after 24 hr by agar disk diffusion method
Klebsiella pneumoniae [3] = test: Antibacterial activity against Klebsiella pneumoniae MTCC 109 assessed as growth inhibition after 24 hr by agar streak dilution method; details: MTCC 109, 24 h
Salmonella typhi [4] = test: Antibacterial activity against Salmonella enterica subsp. enterica serovar Typhi MTCC 733 assessed as growth inhibition after 24 hr by agar streak dilution method; details: MTCC 733, 24 h
Pseudomonas aeruginosa [5] = test: Antibacterial activity against Pseudomonas aeruginosa MTCC 741 assessed as growth inhibition after 24 hr by agar streak dilution method; details: MTCC 741, 24 h
Escherichia coli [6] = test: Antibacterial activity against Escherichia coli MTCC 739 assessed as growth inhibition after 24 hr by agar streak dilution method; details: MTCC 739, 24 h
Bacillus cereus [7] = test: Antibacterial activity against Bacillus cereus MTCC 430 assessed as growth inhibition after 24 hr by agar streak dilution method; details: MTCC 430, 24 h
Staphylococcus aureus [8] = test: Antibacterial activity against Staphylococcus aureus MTCC 96 assessed as growth inhibition after 24 hr by agar streak dilution method; details: MTCC 96, 24 h
[9] = test system: Mycobacterium tuberculosis; test: Antimycobacterial activity against Mycobacterium tuberculosis H37Rv assessed as growth inhibition at MIC after 12 to 28 days by Lowenstein and Jensen agar dilution method
[10] = test system: Mycobacterium tuberculosis; test: Antimycobacterial activity against Mycobacterium tuberculosis H37Rv assessed as growth inhibition after 12 to 28 days by Lowenstein and Jensen agar dilution method
[11] = test system: Mycobacterium tuberculosis; test: Antimycobacterial activity against Mycobacterium tuberculosis H37Rv assessed as growth inhibition at MIC measured within 10 days by BACTEC MGIT method
[12] = test system: Mycobacterium tuberculosis; test: Antimycobacterial activity against Mycobacterium tuberculosis H37Rv assessed as growth inhibition measured within 10 days by BACTEC MGIT method; details: 240 h
Candida albicans [13] = test: Antifungal activity against Candida albicans MTCC 183 assessed as growth inhibition at 3.12 to 50 ug/mL after 24 hr by agar disk diffusion method
Aspergillus clavatus [14] = test: Antifungal activity against Aspergillus clavatus MTCC 1323 assessed as growth inhibition at 3.12 to 50 ug/mL after 24 hr by agar disk diffusion method
Aspergillus fumigatus [15] = test: Antifungal activity against Aspergillus fumigatus MTCC 343 assessed as growth inhibition at 3.12 to 50 ug/mL after 24 hr by agar disk diffusion method
Aspergillus niger [16] = test: Antifungal activity against Aspergillus niger MTCC 282 assessed as growth inhibition at 3.12 to 50 ug/mL after 24 hr by agar disk diffusion method
Candida albicans [17] = test: Antifungal activity against Candida albicans MTCC 183 assessed as growth inhibition after 48 hr by agar streak dilution method; details: MTCC 183, 48 h
Aspergillus clavatus [18] = test: Antifungal activity against Aspergillus clavatus MTCC 1323 assessed as growth inhibition after 48 hr by agar streak dilution method; details: MTCC 1323, 48 h
Aspergillus fumigatus [19] = test: Antifungal activity against Aspergillus fumigatus MTCC 343 assessed as growth inhibition after 48 hr by agar streak dilution method; details: MTCC 343, 48 h
Aspergillus niger [20] = test: Antifungal activity against Aspergillus niger MTCC 282 assessed as growth inhibition after 48 hr by agar streak dilution method; details: MTCC 282, 48 h
Shigella flexneri [21] = test: Antibacterial activity against Shigella flexneri MTCC 1457 assessed as growth inhibition at 3.12 to 50 ug/mL after 24 hr by agar disk diffusion method
Proteus vulgaris [22] = test: Antibacterial activity against Proteus vulgaris MTCC 1771 assessed as growth inhibition at 3.12 to 50 ug/mL after 24 hr by agar disk diffusion method
Pseudomonas aeruginosa [23] = test: Antibacterial activity against Pseudomonas aeruginosa MTCC 741 assessed as growth inhibition at 3.12 to 50 ug/mL after 24 hr by agar disk diffusion method
Escherichia coli [24] = test: Antibacterial activity against Escherichia coli MTCC 739 assessed as growth inhibition at 3.12 to 50 ug/mL after 24 hr by agar disk diffusion method
Bacillus cereus [25] = test: Antibacterial activity against Bacillus cereus MTCC 430 assessed as growth inhibition at 3.12 to 50 ug/mL after 24 hr by agar disk diffusion method
Staphylococcus aureus [26] = test: Antibacterial activity against Staphylococcus aureus MTCC 96 assessed as growth inhibition at 3.12 to 50 ug/mL after 24 hr by agar disk diffusion method
Shigella flexneri [27] = test: Antibacterial activity against Shigella flexneri MTCC 1457 assessed as growth inhibition after 24 hr by agar streak dilution method; details: MTCC 1457, 24 h
Proteus vulgaris [28] = test: Antibacterial activity against Proteus vulgaris MTCC 1771 assessed as growth inhibition after 24 hr by agar streak dilution method; details: MTCC 1771, 24 h

| SMILES | inhibition zone (IZ) (Salmonella typhi [1]) | inhibition zone (IZ) (Klebsiella pneumoniae [2]) | MIC (Klebsiella pneumoniae [3]) | MIC (Salmonella typhi [4]) | MIC (Pseudomonas aeruginosa [5]) | MIC (Escherichia coli [6]) | MIC (Bacillus cereus [7]) | MIC (Staphylococcus aureus [8]) | growth inhibition (GI) [9] | MIC [10] | MIC [12] | inhibition zone (IZ) (Candida albicans [13]) | inhibition zone (IZ) (Aspergillus clavatus [14]) | inhibition zone (IZ) (Aspergillus fumigatus [15]) | inhibition zone (IZ) (Aspergillus niger [16]) | MIC (Candida albicans [17]) | MIC (Aspergillus clavatus [18]) | MIC (Aspergillus fumigatus [19]) | MIC (Aspergillus niger [20]) | inhibition zone (IZ) (Shigella flexneri [21]) | also measured |
| --- | --- | --- | --- | --- | --- | --- | --- | --- | --- | --- | --- | --- | --- | --- | --- | --- | --- | --- | --- | --- | --- |
| CCOc1ccc2nc(NC(=O)CNc3ccc(-c4nc(N5CC(C)CC(C)C5)nc(N5CC(C)CC(C)C5)n4)cc3)sc2c1 (stereo not drawn) | 19 mm | 24 mm | 50 µg/mL (≈ 79.5 µM) | 50 µg/mL (≈ 79.5 µM) | 12.5 µg/mL (≈ 19.9 µM) | 12.5 µg/mL (≈ 19.9 µM) | 25 µg/mL (≈ 39.8 µM) | 6.25 µg/mL (≈ 9.94 µM) | 99% | 6.25 µg/mL (≈ 9.94 µM) | 6.25 µg/mL (≈ 9.94 µM) | 25 mm | 16 mm | 16 mm | 20 mm | 12.5 µg/mL (≈ 19.9 µM) | 50 µg/mL (≈ 79.5 µM) | 50 µg/mL (≈ 79.5 µM) | 25 µg/mL (≈ 39.8 µM) | 17 mm | growth inhibition (GI) [11]: 99%; inhibition zone (IZ) (Proteus vulgaris [22]): 26 mm; inhibition zone (IZ) (Pseudomonas aeruginosa [23]): 23 mm; inhibition zone (IZ) (Escherichia coli [24]): 23 mm; inhibition zone (IZ) (Bacillus cereus [25]): 24 mm; inhibition zone (IZ) (Staphylococcus aureus [26]): 23 mm; MIC (Shigella flexneri [27]): 50 µg/mL (≈ 79.5 µM); MIC (Proteus vulgaris [28]): 12.5 µg/mL (≈ 19.9 µM) |
| CC1CC(C)CN(c2nc(-c3ccc(NCC(=O)Nc4nc5ccc(F)cc5s4)cc3)nc(N3CC(C)CC(C)C3)n2)C1 (stereo not drawn) | 23 mm | 25 mm | 25 µg/mL (≈ 41.5 µM) | 12.5 µg/mL (≈ 20.7 µM) | 25 µg/mL (≈ 41.5 µM) | 25 µg/mL (≈ 41.5 µM) | 3.12 µg/mL (≈ 5.18 µM) | 3.12 µg/mL (≈ 5.18 µM) | 99% | 3.12 µg/mL (≈ 5.18 µM) | 6.25 µg/mL (≈ 10.4 µM) | 23 mm | 25 mm | 25 mm | 22 mm | 50 µg/mL (≈ 82.9 µM) | 50 µg/mL (≈ 82.9 µM) | 25 µg/mL (≈ 41.5 µM) | 12.5 µg/mL (≈ 20.7 µM) | 26 mm | growth inhibition (GI) [11]: 99%; inhibition zone (IZ) (Proteus vulgaris [22]): 25 mm; inhibition zone (IZ) (Pseudomonas aeruginosa [23]): 25 mm; inhibition zone (IZ) (Escherichia coli [24]): 20 mm; inhibition zone (IZ) (Bacillus cereus [25]): 28 mm; inhibition zone (IZ) (Staphylococcus aureus [26]): 25 mm; MIC (Shigella flexneri [27]): 6.25 µg/mL (≈ 10.4 µM); MIC (Proteus vulgaris [28]): 25 µg/mL (≈ 41.5 µM) |
| CC1CC(C)CN(c2nc(-c3ccc(NCC(=O)Nc4ccccc4)cc3)nc(N3CC(C)CC(C)C3)n2)C1 (stereo not drawn) | <10 mm | <10 mm | 50 µg/mL (≈ 94.7 µM) | 50 µg/mL (≈ 94.7 µM) | 50 µg/mL (≈ 94.7 µM) | 50 µg/mL (≈ 94.7 µM) | 50 µg/mL (≈ 94.7 µM) | 50 µg/mL (≈ 94.7 µM) | 95% | 250 µg/mL (≈ 474 µM) | > 6.25 µg/mL | <10 mm | <10 mm | <10 mm | <10 mm | > 50 µg/mL | > 50 µg/mL | 50 µg/mL (≈ 94.7 µM) | 50 µg/mL (≈ 94.7 µM) | <10 mm | inhibition zone (IZ) (Proteus vulgaris [22]): 14 mm; inhibition zone (IZ) (Pseudomonas aeruginosa [23]): 19 mm; inhibition zone (IZ) (Escherichia coli [24]): <10 mm; inhibition zone (IZ) (Bacillus cereus [25]): 12 mm; inhibition zone (IZ) (Staphylococcus aureus [26]): 11 mm; MIC (Shigella flexneri [27]): 50 µg/mL (≈ 94.7 µM); MIC (Proteus vulgaris [28]): 50 µg/mL (≈ 94.7 µM) |
| CC1CC(C)CN(c2nc(-c3ccc(NCC(=O)Nc4ccc(Cl)cc4)cc3)nc(N3CC(C)CC(C)C3)n2)C1 (stereo not drawn) | 18 mm | 21 mm | 50 µg/mL (≈ 88.9 µM) | 50 µg/mL (≈ 88.9 µM) | 25 µg/mL (≈ 44.5 µM) | 50 µg/mL (≈ 88.9 µM) | 50 µg/mL (≈ 88.9 µM) | 25 µg/mL (≈ 44.5 µM) | 98% | 25 µg/mL (≈ 44.5 µM) | > 6.25 µg/mL | <10 mm | <10 mm | 14 mm | <10 mm | > 50 µg/mL | > 50 µg/mL | 50 µg/mL (≈ 88.9 µM) | 50 µg/mL (≈ 88.9 µM) | 24 mm | inhibition zone (IZ) (Proteus vulgaris [22]): 21 mm; inhibition zone (IZ) (Pseudomonas aeruginosa [23]): 26 mm; inhibition zone (IZ) (Escherichia coli [24]): 12 mm; inhibition zone (IZ) (Bacillus cereus [25]): 13 mm; inhibition zone (IZ) (Staphylococcus aureus [26]): 18 mm; MIC (Shigella flexneri [27]): 12.5 µg/mL (≈ 22.2 µM); MIC (Proteus vulgaris [28]): 50 µg/mL (≈ 88.9 µM) |
| CC1CC(C)CN(c2nc(-c3ccc(NCC(=O)Nc4ccc(Br)cc4)cc3)nc(N3CC(C)CC(C)C3)n2)C1 (stereo not drawn) | 20 mm | 24 mm | 25 µg/mL (≈ 41.2 µM) | 25 µg/mL (≈ 41.2 µM) | 12.5 µg/mL (≈ 20.6 µM) | 25 µg/mL (≈ 41.2 µM) | 6.25 µg/mL (≈ 10.3 µM) | 3.12 µg/mL (≈ 5.14 µM) | 99% | 3.12 µg/mL (≈ 5.14 µM) | 6.25 µg/mL (≈ 10.3 µM) | 13 mm | 25 mm | 23 mm | 12 mm | 50 µg/mL (≈ 82.4 µM) | 50 µg/mL (≈ 82.4 µM) | 50 µg/mL (≈ 82.4 µM) | 50 µg/mL (≈ 82.4 µM) | 22 mm | growth inhibition (GI) [11]: 99%; inhibition zone (IZ) (Proteus vulgaris [22]): 13 mm; inhibition zone (IZ) (Pseudomonas aeruginosa [23]): 27 mm; inhibition zone (IZ) (Escherichia coli [24]): 19 mm; inhibition zone (IZ) (Bacillus cereus [25]): 27 mm; inhibition zone (IZ) (Staphylococcus aureus [26]): 24 mm; MIC (Shigella flexneri [27]): 12.5 µg/mL (≈ 20.6 µM); MIC (Proteus vulgaris [28]): 50 µg/mL (≈ 82.4 µM) |

— ChEMBL document CHEMBL3046161, “Synthesis of potential antitubercular and antimicrobial s-triazine-based scaffolds via Suzuki cross-coupling reaction” (2013)
